Source: ChEMBL document CHEMBL5214911, “Chemical update on the potential for serotonin 5-HT6 and 5-HT7 receptor agents in the treatment of Alzheimer's disease” (Bioorg Med Chem Lett, 2021)

Assays:
[1] = biological target: 5-hydroxytryptamine receptor 7 (Homo sapiens, UniProt P34969); assay: Binding affinity to 5-HT7R (unknown origin) assessed as inhibition constant
[2] = biological target: T1, 5-hydroxytryptamine receptor 6 (Homo sapiens, UniProt P50406); assay: Binding affinity to 5-HT6R (unknown origin) assessed as inhibition constant
[3] = biological target: T2, 5-hydroxytryptamine receptor 1A (Homo sapiens, UniProt P08908); assay: Binding affinity to 5-HT1A (unknown origin) assessed as inhibition constant
T2 sequence (P08908 whole entry): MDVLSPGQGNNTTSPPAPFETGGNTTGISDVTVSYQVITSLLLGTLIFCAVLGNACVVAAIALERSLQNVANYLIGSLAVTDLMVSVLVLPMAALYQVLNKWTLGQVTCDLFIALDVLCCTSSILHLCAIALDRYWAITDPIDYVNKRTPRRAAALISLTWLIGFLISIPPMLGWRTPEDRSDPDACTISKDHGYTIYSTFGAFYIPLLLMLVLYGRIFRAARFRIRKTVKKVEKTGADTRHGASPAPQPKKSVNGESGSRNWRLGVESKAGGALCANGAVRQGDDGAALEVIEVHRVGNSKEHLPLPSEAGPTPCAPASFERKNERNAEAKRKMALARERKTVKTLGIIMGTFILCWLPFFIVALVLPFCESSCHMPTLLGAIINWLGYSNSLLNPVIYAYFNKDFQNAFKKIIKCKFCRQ

[4] = biological target: T3, Alpha-2C adrenergic receptor (Homo sapiens, UniProt P18825); assay: Binding affinity to alpha2C AR (unknown origin) assessed as inhibition constant
T3 sequence (P18825 whole entry): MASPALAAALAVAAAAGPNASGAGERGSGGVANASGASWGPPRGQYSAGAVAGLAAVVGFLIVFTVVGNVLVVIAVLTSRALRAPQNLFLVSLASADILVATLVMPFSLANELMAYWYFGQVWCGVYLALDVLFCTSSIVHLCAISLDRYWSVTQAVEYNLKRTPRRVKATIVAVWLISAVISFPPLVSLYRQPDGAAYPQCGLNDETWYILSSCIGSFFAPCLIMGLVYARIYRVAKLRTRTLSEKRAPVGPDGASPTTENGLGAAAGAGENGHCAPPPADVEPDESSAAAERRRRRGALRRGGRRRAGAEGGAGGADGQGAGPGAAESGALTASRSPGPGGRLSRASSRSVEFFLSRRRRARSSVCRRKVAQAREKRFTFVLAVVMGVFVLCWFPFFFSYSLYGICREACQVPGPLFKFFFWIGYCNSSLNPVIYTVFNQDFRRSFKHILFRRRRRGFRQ

[5] = biological target: T1, 5-hydroxytryptamine receptor 6; assay: Displacement of [125I]cAMP-tracer from 5-HT6R in human HeLa cells assessed as measuring cAMP level incubated for 15 mins by radioimmunoassay; type: cell-based

T1 sequence (P50406 whole entry): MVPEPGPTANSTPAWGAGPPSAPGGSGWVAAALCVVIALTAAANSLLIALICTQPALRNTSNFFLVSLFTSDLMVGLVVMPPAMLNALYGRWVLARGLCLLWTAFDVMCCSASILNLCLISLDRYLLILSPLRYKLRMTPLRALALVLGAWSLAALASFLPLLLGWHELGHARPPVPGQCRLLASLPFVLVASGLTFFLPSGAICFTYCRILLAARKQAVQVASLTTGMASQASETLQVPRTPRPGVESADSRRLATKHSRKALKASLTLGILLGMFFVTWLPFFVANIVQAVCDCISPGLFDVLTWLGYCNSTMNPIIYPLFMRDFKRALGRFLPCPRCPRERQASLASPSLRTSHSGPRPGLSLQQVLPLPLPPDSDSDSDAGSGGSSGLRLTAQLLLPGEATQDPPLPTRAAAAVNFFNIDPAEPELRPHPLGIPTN
Sequence of 5-hydroxytryptamine receptor 7 (P34969 whole entry): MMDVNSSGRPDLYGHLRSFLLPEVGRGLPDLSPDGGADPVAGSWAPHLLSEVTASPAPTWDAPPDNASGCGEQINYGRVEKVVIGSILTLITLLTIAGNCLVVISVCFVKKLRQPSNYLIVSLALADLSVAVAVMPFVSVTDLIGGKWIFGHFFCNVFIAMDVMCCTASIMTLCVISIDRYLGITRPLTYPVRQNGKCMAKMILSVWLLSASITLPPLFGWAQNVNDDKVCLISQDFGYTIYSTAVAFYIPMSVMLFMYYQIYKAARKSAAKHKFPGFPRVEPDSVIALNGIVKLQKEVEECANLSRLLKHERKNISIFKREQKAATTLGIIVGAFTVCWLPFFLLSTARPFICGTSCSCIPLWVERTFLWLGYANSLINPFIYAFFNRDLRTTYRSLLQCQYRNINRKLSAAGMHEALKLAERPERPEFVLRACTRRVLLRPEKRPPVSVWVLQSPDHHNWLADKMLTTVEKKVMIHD

CCOCC(Oc1c(C)cccc1Cl)N1CCN(c2ccccc2OC)CC1 (stereo not given) showed a Ki [1] of 34 nM, a Ki [2] of 9620 nM and a Ki [3] of under 1 nM.

For O=C1C2C3CCC(C3)C2C(=O)N1CC1CCCCC1CN1CCN(c2nsc3ccccc23)CC1 (stereo not given), the Ki [4] was 11 nM.

CCOCC(Oc1c(C)cccc1C)N1CCN(c2ccccc2OC)CC1 (stereo not given) showed a Ki [1] of 156 nM, a Ki [2] of 9970 nM and a Ki [3] of 41 nM.

COc1cc(NS(=O)(=O)c2ccc(OC)c(N3CCNCC3)c2)c(Cl)cc1Cl showed a Ki [5] of 0.98 nM.

Clc1ccc(-c2nn(Cc3ccccc3)c3c2CCNCC3)cc1 [JNJ-18038683 FREE BASE] showed a Ki [1] of 3 nM.

CCN1CCCC1CNC(=O)c1cc(S(N)(=O)=O)ccc1OC (stereo not given) [SULPIRIDE] showed a Ki [1] of over 3000 nM.
